Results published in PMC4502414, “Transforming berberine into its intestine-absorbable form by the gut microbiota” (Scientific Reports, 2015).
“Also recorded” adds a separate entry of the source.

Key:
LDLR = assay: Drug effect on hepatic LDLR gene expression in HepG2 cells; format: cell-based, human; conditions: 12 h
Protocol: The HepG2 human hepatoma cell line was obtained from the American Tissue Culture Collection (ATCC, USA) and grown in Eagle’s Minimum Essential Medium (GIBCO) supplemented with 10% fetal bovine serum (GIBCO) at 37 °C. For the drug efficacy test, HepG2 cells were cultured for 24 h and then treated with BBR or dhBBR for 12 h. The compounds were freshly prepared in medium prior to use.
The total cellular RNAs were isolated with the SV Total RNA Isolation System (Promega, Madison, WI, USA) following the vendor’s instructions. The total RNAs were reversely transcribed into cDNAs, and quantitative real-time PCR was performed using a 2-Step RT-qPCR System (Promega, Madison, WI, USA), with GAPDH as an internal control. The normalized LDLR mRNA expression levels were plotted as fold levels compared with the untreated control. The following primers were used: LDLR forward, […]; LDLR reverse, […]; GAPDH forward, […]; and GAPDH reverse, […].

[1] = Plasma pharmacokinetics after oral dhBBR or BBR in rats; format: in vivo, SD rats; conditions: oral dhBBR 200 mg/kg
Protocol: The plasma (100 μl) was precipitated with 100 μl of acetonitrile after addition of 10 μl of the internal standard. BBR served as a control in the study. The plasma concentrations of BBR and dhBBR were determined using LC-MS/MS 8040 and LC-MS/MS 8050.

[2] = Excretion of BBR, dhBBR and other BBR metabolites in rat feces, urine and bile after oral BBR; format: in vivo, SD rats
Protocol: For the analysis of the in vivo intestinal metabolites of BBR, six SD rats were orally treated with BBR (200 mg/kg), and their feces were collected 0, 6, 12, 24, 36, 48, and 72 h after treatment. The method used for the preparation of the feces was reported previously. An aliquot of 1 μl was injected into the GC-MS instrument. The level of dhBBR in feces was measured and calculated based on the standard curve obtained with the in vitro intestinal bacteria incubation mixture.

17 intestinal bacteria = assay: Anti-bacterial test (MIC, broth microdilution); format: cell-based; conditions: 17 intestinal bacteria strains, 24 h
Protocol: Seventeen bacterial strains (see above) were used in the susceptibility test for BBR and dhBBR. The bacterial strains, which belong to different species of bacteria, were collected and identified as described above. The minimum inhibitory concentrations (MICs) of BBR and dhBBR after 24 h were determined through the broth microdilution method according to the CLSI guidelines. BBR and dhBBR were tested at a concentration range of 8 to 512 μg/ml. The MIC was defined as the lowest concentration of an agent that prevents turbidity. The experiment was repeated three times. All of the bacterial strains tested in this study (S. aureus ATCC 29213, E. faecalis ATCC 29212, E. coli ATCC 25922, S. aureus 08-43, S. epidermidis 12-12, E. faecium 13-01, E. faecalis 13-01, E. coli 06-05, K. pneumoniae 13-14, Ps. aeruginosa 13-10, A. baumannii 13-02, E. cloacae 13-12, and P. mirabilis 13-01) were facultative anaerobes, of which S. aureus ATCC 29213, E. faecalis ATCC 29212 and E. coli ATCC 25922 were standard strains from ATCC (USA) and served as quality controls. L. casei ATCC 334, L. acidophilus ATCC 4356, B. longum ATCC 15707, and B. breve ATCC 15700 were also tested in this anti-bacterial experiment. Ampicillin was used as the positive control.

[3] = Distribution of dhBBR in organs of SD rats orally treated with BBR; format: in vivo; conditions: 24 h after oral BBR 200 mg/kg
Protocol: Three segments of small intestine (duodenum, jejunum and ileum) were collected 0, 6, 12, 24, 36, and 48 h after the oral administration of BBR in SD rats. The small intestine tissues were washed thoroughly with saline and dried. After being weighed, the samples were homogenized with mixed solution (ethanol: water, 1:1) at a ratio of 1:2 [w(g)/v(ml)]. The samples were centrifuged at 7,500 g for 10 min, and the supernatant was collected and evaporated to dryness in a water bath at 40 °C using a rotary evaporator. The residues of the tissue extraction were dissolved in methanol (250 μl) and vortex-mixed for 5 min. The tissue solution was then centrifuged (at 14,000 g for 5 min), and the supernatant was passed through a 0.22-μm filter. An aliquot of 1 μl of the supernatant was injected into the GC-MS instrument, and a 10-μl aliquot was used for LC-MS/MS analysis. The level of dhBBR was calculated based on the standard curve, and BBR and other metabolites was quantified using the method described above.

Caco-2 cells = assay: Absorption of BBR and dhBBR in Caco-2 cells; format: in vitro ADME; conditions: Caco-2
Protocol: (§1) A Caco-2 cell assay was conducted using a method reported previously. […] To determine the rate of drug transport in the apical-to-basolateral direction, 200 μl of the compound working solution was added to the filter well (apical compartment), and 800 μl of HBSS was added to the receiver plate (basolateral compartment). Accordingly, to determine the rate of drug transport in the basolateral-to-apical direction, 800 μl of the compound working solution was added to each well of the receiver plate and 200 μl of HBSS was added to the filter well. The plates were incubated for 30 min at 37 °C with shaking at 150 rpm on a rotary shaker. At the end of the transport period, aliquots of 50 μl were removed directly from the apical and basolateral wells and transferred to wells of new plates. Four volumes of cold methanol containing internal standards were added into each well. The samples were centrifuged at 16,000 g for 15 min. Aliquots of 200 μl of the supernatant were used for the LC-MS/MS analysis.

[4] = Absorption of BBR and dhBBR in Caco-2 cells; format: in vitro ADME; conditions: human
Protocol: as §1

COc1ccc2c(c1OC)CN1CCc3cc4c(cc3C1=C2)OCO4 [dhBBR, dihydroberberine]
up-regulation of LDLR mRNA expression compared with BBR (LDLR): Reduced effect; also recorded: much lower than that of BBR
AUC(0-t) ([1]; SD, rat, plasma, po, 200 mg/kg, Fig. 3b curve 2, read-out: AUC(0-t) of dhBBR in plasma): 48.9 ng·h/mL
Cmax ([1]; SD, rat, plasma, po, 200 mg/kg, Fig. 3b curve 2, read-out: Cmax of dhBBR in plasma): 10.2 ng/mL
dhBBR level in plasma [1]: less than 10 ng/ml
time of peak amount of dhBBR in feces ([2]; after oral BBR): 12 to 24 h
detection of dhBBR in rat excretions ([2]; oral BBR, 72-h period, urine, bile and feces): detected only in feces
antibacterial effect compared with BBR (17 intestinal bacteria): even weaker than that of BBR in 5 of the 17 intestinal bacteria strains
organs in which dhBBR was detected [3]: detected in intestinal tissue only
fold Papp (AP-BL) of dhBBR over BBR (Caco-2 cells): 11.9 fold
efflux ratio at 30 min, 5 μM ([4]; Caco-2, pH 7.4, read-out: efflux ratio (ER)): 1.58
Papp A→B at 30 min, 5 μM ([4]; pH 7.4, Caco-2, 5 μM, 30 min): 4.51 ×10⁻⁶ cm/s
